Measurements taken from ChEMBL document CHEMBL3885881, “DrugMatrix”.

Species: Rattus norvegicus
Test: DrugMatrix - Regimen: Daily Repeat
Type: toxicity, organism-based, Sprague-Dawley
Set-up: regimen Daily Repeat, gender Male, age 6-8 weeks
Details: in vivo, po, route oral GAVAGE, vehicle .5 % CMC; for ABSOLUTE BASOPHIL / ABSOLUTE EOSINOPHIL / ABSOLUTE LYMPHOCYTE / ABSOLUTE MONOCYTE / ABSOLUTE SEGMENTED NEUTROPHIL / BASOPHIL / EOSINOPHIL / ERYTHROCYTE COUNT / HEMATOCRIT / HEMOGLOBIN / LEUKOCYTE COUNT / LYMPHOCYTE / MEAN CORPUSCULAR HEMOGLOBIN / MEAN CORPUSCULAR HEMOGLOBIN CONCENTRATION / MEAN CORPUSCULAR VOLUME / MONOCYTE / NEUTROPHIL / NUCLEATED RED BLOOD CELLS / PLATELET COUNT: tissue Blood; for ALANINE AMINOTRANSFERASE / ALBUMIN / ALKALINE PHOSPHATASE / ASPARTATE AMINOTRANSFERASE / BLOOD UREA NITROGEN / CARBON DIOXIDE / CHLORIDE / CHOLESTEROL / CREATINE PHOSPHOKINASE / CREATININE / GLUCOSE / LACTATE DEHYDROGENASE / LIPASE / PHOSPHORUS / POTASSIUM / SODIUM / TOTAL BILIRUBIN / TOTAL PROTEIN / URIC ACID: tissue Plasma
[1] = 88 mg/kg, 72 h, dose level Low, time 3 day
[2] = 88 mg/kg, 120 h, dose level Low, time 5 day
[3] = 750 mg/kg, 72 h, dose level High, time 3 day
[4] = 750 mg/kg, 120 h, dose level High, time 5 day

CCC1(c2ccccc2)C(=O)NCNC1=O [PRIMIDONE]
ABSOLUTE BASOPHIL [1]: 0 CELLS/uL
ABSOLUTE EOSINOPHIL [1]: 207.67 CELLS/uL
ABSOLUTE LYMPHOCYTE [1]: 14556.33 CELLS/uL
ABSOLUTE MONOCYTE [1]: 206 CELLS/uL
ABSOLUTE SEGMENTED NEUTROPHIL [1]: 1063.33 CELLS/uL
BASOPHIL [1]: 0%
EOSINOPHIL [1]: 1.33%
ERYTHROCYTE COUNT [1]: 5.49 x10E6/uL
HEMATOCRIT [1]: 34.53%
HEMOGLOBIN [1]: 13.03 G/DL
LEUKOCYTE COUNT [1]: 16.03 x10E3/uL
LYMPHOCYTE [1]: 90.67%
MEAN CORPUSCULAR HEMOGLOBIN [1]: 23.87 pg
MEAN CORPUSCULAR HEMOGLOBIN CONCENTRATION [1]: 37.8 G/DL
MEAN CORPUSCULAR VOLUME [1]: 63.07 fL
MONOCYTE [1]: 1.33%
NEUTROPHIL [1]: 6.67%
NUCLEATED RED BLOOD CELLS [1]: 0 /100WBC
PLATELET COUNT [1]: 1338 x10E3/uL
ALANINE AMINOTRANSFERASE [1]: 44.67 u/L
ALBUMIN [1]: 4.17 G/DL
ALKALINE PHOSPHATASE [1]: 329.33 u/L
ASPARTATE AMINOTRANSFERASE [1]: 77.33 u/L
BLOOD UREA NITROGEN [1]: 15 mg/dL
CARBON DIOXIDE [1]: 25.33 mmol/L
CHLORIDE [1]: 105.33 MEQ/L
CHOLESTEROL [1]: 72 mg/dL
CREATINE PHOSPHOKINASE [1]: 356 u/L
CREATININE [1]: 0.16 mg/dL
GLUCOSE [1]: 157.67 mg/dL
LACTATE DEHYDROGENASE [1]: 80 u/L
LIPASE [1]: 9 u/L
PHOSPHORUS [1]: 13.8 mg/dL
POTASSIUM [1]: 6.58 MEQ/L
SODIUM [1]: 144.83 MEQ/L
TOTAL BILIRUBIN [1]: 0.2 mg/dL
TOTAL PROTEIN [1]: 5.83 G/DL
URIC ACID [1]: 1.93 mg/dL
ABSOLUTE BASOPHIL [2]: 0 CELLS/uL
ABSOLUTE EOSINOPHIL [2]: 87 CELLS/uL
ABSOLUTE LYMPHOCYTE [2]: 14869 CELLS/uL
ABSOLUTE MONOCYTE [2]: 252 CELLS/uL
ABSOLUTE SEGMENTED NEUTROPHIL [2]: 1292 CELLS/uL
BASOPHIL [2]: 0%
EOSINOPHIL [2]: 0.33%
ERYTHROCYTE COUNT [2]: 5.5 x10E6/uL
HEMATOCRIT [2]: 34.07%
HEMOGLOBIN [2]: 13.03 G/DL
LEUKOCYTE COUNT [2]: 16.5 x10E3/uL
LYMPHOCYTE [2]: 91.33%
MEAN CORPUSCULAR HEMOGLOBIN [2]: 23.67 pg
MEAN CORPUSCULAR HEMOGLOBIN CONCENTRATION [2]: 38.3 G/DL
MEAN CORPUSCULAR VOLUME [2]: 61.9 fL
MONOCYTE [2]: 1.33%
NEUTROPHIL [2]: 7%
NUCLEATED RED BLOOD CELLS [2]: 0 /100WBC
PLATELET COUNT [2]: 1298.67 x10E3/uL
ALANINE AMINOTRANSFERASE [2]: 49.67 u/L
ALBUMIN [2]: 3.93 G/DL
ALKALINE PHOSPHATASE [2]: 300.67 u/L
ASPARTATE AMINOTRANSFERASE [2]: 79.67 u/L
BLOOD UREA NITROGEN [2]: 16.67 mg/dL
CARBON DIOXIDE [2]: 27.67 mmol/L
CHLORIDE [2]: 106.67 MEQ/L
CHOLESTEROL [2]: 63.67 mg/dL
CREATINE PHOSPHOKINASE [2]: 421.67 u/L
CREATININE [2]: 0.21 mg/dL
GLUCOSE [2]: 162 mg/dL
LACTATE DEHYDROGENASE [2]: 161 u/L
LIPASE [2]: 8.67 u/L
PHOSPHORUS [2]: 13.87 mg/dL
POTASSIUM [2]: 6.54 MEQ/L
SODIUM [2]: 145.5 MEQ/L
TOTAL BILIRUBIN [2]: 0.2 mg/dL
TOTAL PROTEIN [2]: 6.03 G/DL
URIC ACID [2]: 2.03 mg/dL
ABSOLUTE BASOPHIL [3]: 0 CELLS/uL
ABSOLUTE EOSINOPHIL [3]: 107 CELLS/uL
ABSOLUTE LYMPHOCYTE [3]: 6934.67 CELLS/uL
ABSOLUTE MONOCYTE [3]: 246.33 CELLS/uL
ABSOLUTE SEGMENTED NEUTROPHIL [3]: 1312 CELLS/uL
BASOPHIL [3]: 0%
EOSINOPHIL [3]: 1%
ERYTHROCYTE COUNT [3]: 6.1 x10E6/uL
HEMATOCRIT [3]: 37.33%
HEMOGLOBIN [3]: 14.33 G/DL
LEUKOCYTE COUNT [3]: 8.6 x10E3/uL
LYMPHOCYTE [3]: 79.33%
MEAN CORPUSCULAR HEMOGLOBIN [3]: 23.6 pg
MEAN CORPUSCULAR HEMOGLOBIN CONCENTRATION [3]: 38.3 G/DL
MEAN CORPUSCULAR VOLUME [3]: 61.67 fL
MONOCYTE [3]: 3%
NEUTROPHIL [3]: 16.67%
NUCLEATED RED BLOOD CELLS [3]: 0.33 /100WBC
PLATELET COUNT [3]: 1338.67 x10E3/uL
ALANINE AMINOTRANSFERASE [3]: 48.5 u/L
ALBUMIN [3]: 4.73 G/DL
ALKALINE PHOSPHATASE [3]: 307 u/L
ASPARTATE AMINOTRANSFERASE [3]: 85 u/L
BLOOD UREA NITROGEN [3]: 15.5 mg/dL
CARBON DIOXIDE [3]: 26.33 mmol/L
CHLORIDE [3]: 107.5 MEQ/L
CHOLESTEROL [3]: 66.67 mg/dL
CREATINE PHOSPHOKINASE [3]: 138 u/L
CREATININE [3]: 0.24 mg/dL
GLUCOSE [3]: 144.33 mg/dL
LACTATE DEHYDROGENASE [3]: 137.33 u/L
LIPASE [3]: 8.5 u/L
PHOSPHORUS [3]: 10.5 mg/dL
POTASSIUM [3]: 5.94 MEQ/L
SODIUM [3]: 150.9 MEQ/L
TOTAL BILIRUBIN [3]: 0.3 mg/dL
TOTAL PROTEIN [3]: 6.2 G/DL
URIC ACID [3]: 1 mg/dL
ABSOLUTE BASOPHIL [4]: 0 CELLS/uL
ABSOLUTE EOSINOPHIL [4]: 136.67 CELLS/uL
ABSOLUTE LYMPHOCYTE [4]: 11870 CELLS/uL
ABSOLUTE MONOCYTE [4]: 38.33 CELLS/uL
ABSOLUTE SEGMENTED NEUTROPHIL [4]: 755 CELLS/uL
BASOPHIL [4]: 0%
EOSINOPHIL [4]: 1%
ERYTHROCYTE COUNT [4]: 5.98 x10E6/uL
HEMATOCRIT [4]: 37.3%
HEMOGLOBIN [4]: 13.87 G/DL
LEUKOCYTE COUNT [4]: 12.8 x10E3/uL
LYMPHOCYTE [4]: 92.67%
MEAN CORPUSCULAR HEMOGLOBIN [4]: 23.17 pg
MEAN CORPUSCULAR HEMOGLOBIN CONCENTRATION [4]: 37.17 G/DL
MEAN CORPUSCULAR VOLUME [4]: 62.37 fL
MONOCYTE [4]: 0.33%
NEUTROPHIL [4]: 6%
NUCLEATED RED BLOOD CELLS [4]: 0 /100WBC
PLATELET COUNT [4]: 1320.33 x10E3/uL
ALANINE AMINOTRANSFERASE [4]: 59.67 u/L
ALBUMIN [4]: 4.13 G/DL
ALKALINE PHOSPHATASE [4]: 421 u/L
ASPARTATE AMINOTRANSFERASE [4]: 98.33 u/L
BLOOD UREA NITROGEN [4]: 15 mg/dL
CARBON DIOXIDE [4]: 25.33 mmol/L
CHLORIDE [4]: 105.33 MEQ/L
CHOLESTEROL [4]: 68.33 mg/dL
CREATINE PHOSPHOKINASE [4]: 186.67 u/L
CREATININE [4]: 0.18 mg/dL
GLUCOSE [4]: 159.33 mg/dL
LACTATE DEHYDROGENASE [4]: 96 u/L
LIPASE [4]: 9 u/L
PHOSPHORUS [4]: 13.2 mg/dL
POTASSIUM [4]: 6.32 MEQ/L
SODIUM [4]: 146.03 MEQ/L
TOTAL BILIRUBIN [4]: 0.2 mg/dL
TOTAL PROTEIN [4]: 6.17 G/DL
URIC ACID [4]: 2.07 mg/dL
